Data published in publication PMC7407272, “Induction of Lysosome Membrane Permeabilization as a Therapeutic Strategy to Target Pancreatic Cancer Stem Cells” (Cancers, 2020).
Where two headings read alike, the source gives them in different places.

Tests used:
[1] = biological target: T1, PRKCD (Homo sapiens, UniProt Q05655); assay: KINOMEscan; assay type: binding; settings: read-out: % Ctrl
T1 construct: purchased DiscoveRx KINOMEscan

[2] = biological target: T2, EGFR(E746-A750del) (Homo sapiens, UniProt P00533, DEL746-750); assay: KINOMEscan; assay type: binding; settings: read-out: % Ctrl
T2 construct: purchased DiscoveRx KINOMEscan

[3] = test system: PDAC2 3D spheres; assay: Viability curves on PDAC2 3D spheres; assay type: cell-based, human; settings: for EC50: Homo sapiens
Description: The PDAC patient-derived xenograft (PDX) Panc354 (referred to hereafter as PDAC3) was obtained from Dr. Manuel Hidalgo under a Material Transfer Agreement with the Spanish National Cancer Centre (CNIO), Madrid, Spain (Reference no. I409181220BSMH). PDAC1, PDAC2 and PDAC4 PDXs were established from primary patient resected tumors. Samples were provided by the BioBank Hospital Ramón y Cajal-IRYCIS (PT13/0010/0002), integrated in the Spanish National Biobanks Network and they were processed following standard operating procedures with the appropriate approval of the Ethical and Scientific Committees (Control no. No. Control: DE-BIOB-73 AC65, RG.BIOB-96 REV, and CI-BIOB-08-10-01 rev), with informed consent and according to Declaration of Helsinki principles. Primary patient tumors were subcutaneously implanted in immunocompromised female 6- to 8-week-old NU-Foxn1nu nude mice (Envigo, Barcelona, Spain) and subsequently passage in vivo to establish PDX PDAC1, PDAC2 and PDAC4. Primary PDX-derived in vitro cultures were established as previously detailed. Briefly, xenografts were minced, enzymatically digested with collagenase (Stem Cell Technologies) for 60 min at 37 °C and after centrifugation for 5 min at 1800 rpm, the cell pellets were resuspended and cultured in RPMI (1:1; #61870-010; Gibco, Waltham, MA, USA) supplemented with 10% FBS (Invitrogen, Waltham, MA, USA), Pen/Strep (1:100; #1500-063; Gibco, Waltham, MA, USA), and Fungizone (1:250; #15290-018; Gibco, Waltham, MA, USA). Primary cultures were tested for Mycoplasma at least every 4 weeks.
Pancreatic CSC spheres were generated as previously described in ultra-low attachment plates (Corning) using CSC media: serum-free DMEM/F12 medium (1:1; #21331-020; Gibco, Waltham, MA, USA), supplemented with Pen/Strep (1:100; #1500-063; Gibco, Waltham, MA, USA), Fungizone (1:250; #15290-018; Gibco), L-Glutamine (1:100; #25030-024; Gibco, Waltham, MA, USA), B-27 (1:50; #17504-044; Gibco, Waltham, MA, USA) and basic fibroblast growth factor (FGF-b) (1:5000; Gibco, Waltham, MA, USA). All cell culture was carried out at 37 °C in a 5% CO2 humidified incubator. To quantify spheres of > 40 μm, 1 mL of sample volume was analyzed with a CASY® Cell Counter (Roche Applied Sciences, Mannheim, Germany). The CASY® Cell Counter measuring principle is based on a capillary particle counter with pulse area analysis, that permits the determination of cell count, cell concentration, cell volume (peak), and average cell diameter, specifically diameters of 40–80 μm, 80–120 μm and >120 μm.
Murine embryonic stem cells (mESCs) were plated at 20,000 cells per well in gelatinized 96 well plates. Compounds from the 640 compound ETP library were added by a Beckman FX 96 tip to achieve a final concentration of 5 µM in each well, and each compound was tested in duplicate. Cells were treated for a total of 30 h prior to assessing cell viability using CellTiter 96® AQueous One Solution Cell Proliferation Assay (MTS) assay according to manufacturer’s instructions (G3582, Promega, Madison, WI, USA). Dose response curves were carried out on mESCs under the same conditions using indicated compounds. To test the viability of CSCs, 10,000 PDAC cells were plated in spheroid conditions and immediately treated with indicated compounds and concentrations for the duration of the sphere formation assay. […]

[4] = biological target: T3, RSK3(KD1-N-t.) (Homo sapiens, UniProt Q15349); assay: KINOMEscan; assay type: binding; settings: read-out: % Ctrl
T3 construct: RSK3(KD1-N-t.); purchased DiscoveRx KINOMEscan

[5] = biological target: T4, HUNK (Homo sapiens, UniProt P57058); assay: KINOMEscan; assay type: binding; settings: read-out: % Ctrl
T4 construct: purchased DiscoveRx KINOMEscan

[6] = test system: mouse embryonic stem cells (mESCs); assay: mESC viability (MTS) screen and dose response; assay type: cell-based; settings: Mus musculus, Embryonic stem cell, 30 h
Experimental: (§1) Mouse embryonic stem cells were cultured in Dulbecco’s Modified Eagle Medium (DMEM) containing 15% Fetal bovine serum (FBS), non-essential amino acids (NEAA), 2-mercaptoethanol, and Leukemia inhibitory factor (LIF) and passaged on gelatinized plates under standard conditions.
(§2) Murine embryonic stem cells (mESCs) were plated at 20,000 cells per well in gelatinized 96 well plates. Compounds from the 640 compound ETP library were added by a Beckman FX 96 tip to achieve a final concentration of 5 µM in each well, and each compound was tested in duplicate. Cells were treated for a total of 30 h prior to assessing cell viability using CellTiter 96® AQueous One Solution Cell Proliferation Assay (MTS) assay according to manufacturer’s instructions (G3582, Promega, Madison, WI, USA). Dose response curves were carried out on mESCs under the same conditions using indicated compounds. To test the viability of CSCs, 10,000 PDAC cells were plated in spheroid conditions and immediately treated with indicated compounds and concentrations for the duration of the sphere formation assay. For adherent non-CSCs, 20,000 cells were plated in wells of standard tissue culture-treated plates (Corning, Corning, NY, USA) and treated the following day with indicated compounds and concentrations. For re-plated spheres (Figure S1B), 7-day-old spheres were filtered using a 40 µM filter (Fisher Scientific, Hampton, NH, USA), washed once with 1× PBS, and incubated with trypsin 0.05% EDTA at 37 °C (Thermo Fisher Scientific, Waltham, MA, USA) to achieve a single cell suspension (approximately 10–30 min, depending on the PDAC culture). Trypsinized cells were counted and 20,000 cells were plated in wells of standard tissue culture-treated plates (Corning) and treated the following day with indicated compounds and concentrations.

[7] = mESC viability (MTS) screen and dose response; assay type: cell-based, mouse; settings: mouse, mouse embryonic stem cells (mESCs), 5 µM, MTS
Experimental: as §1, §2

[8] = biological target: T5, ABL1(Y253F)-P (Homo sapiens, UniProt P00519, Y253F); assay: KINOMEscan; assay type: binding; settings: read-out: % Ctrl
T5 construct: purchased DiscoveRx KINOMEscan

T1 sequence (Q05655 whole entry): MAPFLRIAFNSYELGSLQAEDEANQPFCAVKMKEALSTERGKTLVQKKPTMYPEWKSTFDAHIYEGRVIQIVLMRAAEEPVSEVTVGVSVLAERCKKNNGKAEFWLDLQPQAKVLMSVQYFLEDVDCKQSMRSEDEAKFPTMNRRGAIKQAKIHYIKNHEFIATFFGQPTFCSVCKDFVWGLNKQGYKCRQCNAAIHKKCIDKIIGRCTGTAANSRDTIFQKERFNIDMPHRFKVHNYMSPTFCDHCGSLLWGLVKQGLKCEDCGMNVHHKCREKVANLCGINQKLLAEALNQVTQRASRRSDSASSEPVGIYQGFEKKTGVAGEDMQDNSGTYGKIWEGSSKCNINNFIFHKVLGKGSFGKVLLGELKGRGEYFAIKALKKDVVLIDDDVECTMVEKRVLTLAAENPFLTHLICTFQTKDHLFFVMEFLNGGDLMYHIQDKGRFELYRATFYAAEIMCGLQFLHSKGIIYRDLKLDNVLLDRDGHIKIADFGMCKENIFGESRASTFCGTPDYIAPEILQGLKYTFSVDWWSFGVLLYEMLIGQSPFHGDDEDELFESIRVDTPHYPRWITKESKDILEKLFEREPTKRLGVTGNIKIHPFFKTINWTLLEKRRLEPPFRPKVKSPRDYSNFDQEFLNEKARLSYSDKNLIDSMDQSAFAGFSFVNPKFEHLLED
T3 sequence (Q15349 1-388 limits assumed): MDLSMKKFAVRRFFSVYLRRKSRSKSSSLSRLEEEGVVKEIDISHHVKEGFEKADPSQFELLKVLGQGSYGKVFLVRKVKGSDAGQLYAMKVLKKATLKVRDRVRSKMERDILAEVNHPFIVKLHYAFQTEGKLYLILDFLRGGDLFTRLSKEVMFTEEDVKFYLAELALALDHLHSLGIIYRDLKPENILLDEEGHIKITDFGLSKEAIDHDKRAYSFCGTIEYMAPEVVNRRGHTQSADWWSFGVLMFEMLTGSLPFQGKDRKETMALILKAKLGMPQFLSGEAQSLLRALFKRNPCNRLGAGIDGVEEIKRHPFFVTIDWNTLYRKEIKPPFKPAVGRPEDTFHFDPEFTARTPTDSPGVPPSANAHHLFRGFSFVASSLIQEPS
T4 sequence (P57058 whole entry): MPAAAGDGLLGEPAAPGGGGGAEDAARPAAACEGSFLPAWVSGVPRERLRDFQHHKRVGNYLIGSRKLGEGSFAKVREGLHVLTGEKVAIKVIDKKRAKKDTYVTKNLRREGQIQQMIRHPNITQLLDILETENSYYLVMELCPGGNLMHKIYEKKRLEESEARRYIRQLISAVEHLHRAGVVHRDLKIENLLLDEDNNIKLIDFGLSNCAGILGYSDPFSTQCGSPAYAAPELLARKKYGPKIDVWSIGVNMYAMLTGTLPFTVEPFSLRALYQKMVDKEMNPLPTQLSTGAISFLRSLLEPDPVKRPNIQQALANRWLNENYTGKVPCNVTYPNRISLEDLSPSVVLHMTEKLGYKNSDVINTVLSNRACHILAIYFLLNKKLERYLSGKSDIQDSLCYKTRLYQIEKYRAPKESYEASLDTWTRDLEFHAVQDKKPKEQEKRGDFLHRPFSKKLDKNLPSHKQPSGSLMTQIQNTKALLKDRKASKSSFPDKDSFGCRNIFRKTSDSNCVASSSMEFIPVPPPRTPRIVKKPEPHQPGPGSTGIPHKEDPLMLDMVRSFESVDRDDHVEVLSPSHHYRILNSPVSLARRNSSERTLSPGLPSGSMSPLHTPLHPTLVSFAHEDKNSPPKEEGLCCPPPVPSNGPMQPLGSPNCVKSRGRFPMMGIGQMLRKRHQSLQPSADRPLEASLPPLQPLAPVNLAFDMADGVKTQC
T2 sequence (P00533 with tags, fused parts or gaps DEL746-750 limits assumed): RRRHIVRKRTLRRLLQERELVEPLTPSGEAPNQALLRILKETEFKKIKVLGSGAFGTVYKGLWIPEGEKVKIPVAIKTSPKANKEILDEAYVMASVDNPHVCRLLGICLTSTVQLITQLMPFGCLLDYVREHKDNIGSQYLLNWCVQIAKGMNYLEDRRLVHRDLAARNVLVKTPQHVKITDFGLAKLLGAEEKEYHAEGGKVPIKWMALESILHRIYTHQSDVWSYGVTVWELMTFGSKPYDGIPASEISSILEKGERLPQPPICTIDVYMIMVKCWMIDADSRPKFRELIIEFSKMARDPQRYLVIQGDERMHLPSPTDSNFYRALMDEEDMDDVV

SMILES	remaining binding at 1 µM [1]	remaining binding at 1 µM [2]	prevention of the effect on PDAC2 CSC survival by Bafilomycin-A ([3]; 100 nM Bafilomycin 5 h pretreatment)	EC50 ([3]; PDAC-2, 72 h, no Bafilomycin, read-out: EC50 (viability), PDAC2 spheres)	EC50 ([3]; PDAC-2, pretreated with 100 nM Bafilomycin for 5 h, then 72 h, read-out: EC50 (viability), PDAC2 spheres, +Baf)	remaining binding at 1 µM [4]	remaining binding at 1 µM [5]	EC50 [6]	viability at 30 h, 5 µM [7]	remaining binding at 1 µM [8]	EC50 ([3]; PDAC-2, 30 h, read-out: EC50 (viability), PDAC2 spheres)
CN1CCC(CNc2ccc3ncc(C(=O)Nc4cccc(OC(F)(F)F)c4)n3n2)CC1 [Cpd 2]	80%	77%	≈ 3 fold	3.84 µM	9.14 µM	93%	100%	2.05 µM	19%	100%	–
Fc1ccc(-n2cc(CCCCN3CCC4(CC3)OCc3ccccc34)c3ccccc32)cc1 [siramesine]	–	–	–	–	–	–	–	–	–	–	5.98 µM
COc1nc2ccc(NCC3CCN(C)CC3)nn2c1C(=O)Nc1cccc(OC(F)(F)F)c1 [Cpd 1]	–	–	–	–	–	–	–	1.33 µM	8%	–	–
